In PubChem BioAssay (NCI):
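Five concentrations, 48 hours, 96-well plates. TGI denotes the concentration required for complete inhibition of growth.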 Where a SMILES comes first, the peptide text is derived from it. [ ]: non-standard residue; d: D form. β3hI = CC[CH](C)[CH](N)CC(=O)O

Assays:
Assay in all cases: NCI tumour cell line growth inhibition, 48 h
HOP-62 NSCLC = test system: HOP-62 NSCLC
A498 renal = test system: A498 renal
SN12C renal = test system: SN12C renal
OVCAR-5 ovarian = test system: OVCAR-5 ovarian
HOP-92 NSCLC = test system: HOP-92 NSCLC
HCC-2998 colon = test system: HCC-2998 colon
MDA-MB-231 breast = test system: MDA-MB-231 breast
K-562 leukemia = test system: K-562 leukemia
HS 578T breast = test system: HS 578T breast
BT-549 breast = test system: BT-549 breast
TK-10 renal = test system: TK-10 renal
NCI-H23 lung = test system: NCI-H23 lung
PC-3 prostate = test system: PC-3 prostate
M14 melanoma = test system: M14 melanoma
A549 NSCLC = test system: A549 NSCLC
MALME-3M melanoma = test system: MALME-3M melanoma
SNB-19 CNS = test system: SNB-19 CNS
RPMI-8226 leukemia = test system: RPMI-8226 leukemia
SW-620 colon = test system: SW-620 colon

SMILES | TGI (HOP-62 NSCLC) [µM] | TGI (A498 renal) [µM] | TGI (SN12C renal) [µM] | TGI (OVCAR-5 ovarian) [µM] | TGI (HOP-92 NSCLC) [µM] | TGI (HCC-2998 colon) [µM] | TGI (MDA-MB-231 breast) [µM] | TGI (K-562 leukemia) [µM] | TGI (HS 578T breast) [µM] | TGI (BT-549 breast) [µM] | TGI (TK-10 renal) [µM] | TGI (NCI-H23 lung) [µM] | TGI (PC-3 prostate) [µM] | TGI (M14 melanoma) [µM] | TGI (A549 NSCLC) [µM] | TGI (MALME-3M melanoma) [µM] | TGI (SNB-19 CNS) [µM] | TGI (RPMI-8226 leukemia) [µM] | TGI (SW-620 colon) [µM]
COc1cc([C@@H]2c3[nH]c4ccccc4c3C(Nc3ccc([N+](=O)[O-])cc3)[C@H]3COC(=O)N23)cc(OC)c1O (stereo partly specified) | 0.302 | 0.653 | 3.76 | 2.06 | 1.96 | 20.3 | 0.648 | 6.97 | 2.79 | 4.87 | 0.754 | 1.51 | 7.88 | 2.2 | 0.95 | 1.31 | 0.698 | – | –
CN(C1=NCCO1)c1cccc2c1CCCC2 | > 10 | 9.35 | > 10 | > 10 | – | > 10 | 5.28 | > 10 | > 10 | > 10 | > 10 | 8.81 | 8.53 | 6.09 | > 10 | 9.3 | > 10 | > 10 | > 10
CCOC(=O)c1c(-c2ccc(OC)cc2)c(C#N)c(=S)n(C2OC(CO)C(O)C(O)C2O)c1-c1ccccc1 (stereo unspecified) | 80.7 | – | > 100 | > 100 | 32.8 | > 100 | > 100 | > 100 | 70 | > 100 | > 100 | > 100 | > 100 | > 100 | > 100 | > 100 | > 100 | > 100 | > 100
Cc1n[nH]c(=O)n1/N=C/c1c[nH]c2ccccc12 | > 100 | > 100 | > 100 | > 100 | > 100 | > 100 | > 100 | > 100 | – | > 100 | – | > 100 | > 100 | > 100 | > 100 | > 100 | > 100 | > 100 | > 100
N#CCCN(CCC#N)c1ccc(/C=C2\N=C(c3ccccc3)N(c3ccccn3)C2=O)cc1 | > 100 | > 100 | > 100 | > 100 | > 100 | – | > 100 | > 100 | > 100 | > 100 | > 100 | – | > 100 | > 100 | > 100 | > 100 | > 100 | > 100 | > 100
CCC(C)C(CC(=O)N1CCCC1C(=O)NC(C(=O)NC(C(=O)NCC(=O)NC(CC(N)=O)C(=O)NC(C(=O)NC(C(=O)NC(CCCCN)C(N)=O)C(C)CC)C(C)CC)C(C)C)C(C)CC)NC(=O)C(N)C(C)CC (stereo not drawn) (H-I[β3hI]PIVGNIIK-NH2; configuration not given here) | > 50 | > 50 | > 50 | > 50 | > 50 | – | > 50 | – | > 50 | > 50 | > 50 | > 50 | > 50 | > 50 | > 50 | > 50 | > 50 | > 50 | > 50
COc1cccc(N2C(=O)CSC2c2cc(OC)c(OC)c(OC)c2)c1 (stereo unspecified) | – | > 100 | > 100 | > 100 | > 100 | 85.2 | > 100 | > 100 | > 100 | 64.6 | > 100 | > 100 | > 100 | > 100 | > 100 | – | 63 | > 100 | > 100
CC(C)NC(=O)OCCN=C1c2ccccc2CCc2ccccc21 | 70.1 | – | 46.2 | 82.9 | 55 | 39 | 66.7 | 59 | 78.3 | 28.5 | 92.7 | > 100 | 62.4 | 39.7 | > 100 | 36.3 | 66.8 | 43.2 | > 100
COc1ccc(/C=C/C(=O)N[C@@H]2C(=O)N3[C@@H]2SC(C)(C)[C@@H]3C(=O)O)cc1 | > 100 | > 100 | > 100 | > 100 | > 100 | > 100 | > 100 | > 100 | > 100 | > 100 | > 100 | > 100 | > 100 | > 100 | > 100 | – | > 100 | > 100 | > 100
ClC1=C(Cc2ccccc2)Cc2ccc3c(c21)CCC3 | > 100 | – | > 100 | > 100 | > 100 | 40.1 | 57.3 | 76 | 84.3 | 67.5 | > 100 | > 100 | > 100 | > 100 | 98.2 | 59.7 | 52 | 65.3 | > 100
O=C(/C=C/c1ccco1)CC(=O)/C=C/c1ccco1 | 17.3 | 36.7 | 17.5 | 23.3 | 71.7 | 17.3 | – | 26.7 | 26.8 | 55.4 | 61.2 | 17.4 | – | > 31.6 | 24.5 | 20.9 | 31.4 | 23.9 | 17.1
CC1(C)CN=C(Nc2cccc(C(F)(F)F)c2)S1 | > 100 | – | > 100 | > 100 | > 100 | > 100 | 16.3 | > 100 | > 100 | > 100 | > 100 | > 100 | > 100 | > 100 | > 100 | > 100 | > 100 | > 100 | > 100
CCOC(=O)[C@@]12CCC(C1=O)[C@](C)(O)C[C@@H]2c1ccccc1 | > 100 | – | 72.3 | > 100 | > 100 | – | > 100 | > 100 | 61.7 | > 100 | > 100 | > 100 | > 100 | > 100 | > 100 | > 100 | > 100 | – | > 100
COc1ccc2oc(C(=O)N3CC(CCl)c4ccc([N+](=O)[O-])cc43)cc2c1 (stereo unspecified) | 31.5 | 58.5 | – | – | > 100 | > 100 | 54.5 | > 100 | 62.2 | > 100 | > 100 | > 100 | > 100 | > 100 | – | – | > 100 | > 100 | > 100
FC(F)(Sc1ccccc1)c1nc2ccccc2o1 | > 100 | > 100 | > 100 | > 100 | > 100 | > 100 | > 100 | > 100 | – | > 100 | > 100 | > 100 | > 100 | > 100 | > 100 | > 100 | – | > 100 | > 100
O=[N+]([O-])c1cc(-[n+]2cc([O-])on2)ccc1F | 30.3 | – | 31.2 | 31.2 | 32.6 | 28.6 | 38 | > 100 | 61.5 | 31.3 | 33.1 | 33.5 | 35.1 | 29.6 | 33.4 | 29 | 21.3 | > 100 | 38.3
O=C(OC(=C(c1ccccc1)c1ccccc1)N1CCCC1=S)C(c1ccccc1)c1ccccc1 | > 10 | > 10 | > 10 | > 10 | – | > 10 | > 10 | > 10 | > 10 | > 10 | > 10 | > 10 | > 10 | > 10 | > 10 | > 10 | > 10 | > 10 | > 10
COC(=O)C(Cc1ccccc1)OC(=O)C(N)CC(=O)O (stereo unspecified) | > 100 | – | > 100 | > 100 | > 100 | > 100 | > 100 | > 100 | > 100 | > 100 | > 100 | > 100 | > 100 | > 100 | > 100 | > 100 | > 100 | > 100 | > 100
O=C(CCc1cccc(O)c1)NCCc1ccc(O)cc1 | > 100 | > 100 | > 100 | > 100 | > 100 | – | > 100 | > 100 | > 100 | > 100 | > 100 | > 100 | > 100 | > 100 | > 100 | > 100 | > 100 | – | –
Cn1c2ccccc2c(=NNc2ccccc2C(=O)O)c2ccccc21 | 75.4 | – | 83.1 | 85 | 67.6 | 46.8 | 59.1 | 28.5 | 83.1 | 61 | 75.2 | 76.8 | 42.3 | 53.5 | 77.2 | 43.7 | > 100 | 53.3 | 84.8
